Key:
Format in all cases: cell-based
[1] = test system: LNCaP cells; test: Cell death assay (trypan blue dye exclusion)
Excerpt: At the indicated time after exposure to soraphen and/or other compounds, the adherent and floating cells were collected by trypsinization and centrifugation and both cell populations were combined.

[2] = test system: fatty acid synthesis in LNCaP cells; test: 2-14C-acetate incorporation assay and TLC analysis; details: soraphen 24 hours, 2-14C-acetate last 4 hours
Description: LNCaP cells were treated with soraphen or vehicle (ethanol) for 24 hours. The last 4 hours, 2-^14C-labeled acetate (57 mCi/mmol; 2 μCi/dish; Amersham International, Aylesbury, UK) was added to the culture medium. Lipids were extracted according to a modified Bligh-Dyer method as previously described (De Schrijver et al., 2003). To analyze the incorporation of 2-^14C-acetate into different lipid classes, TLC analysis was performed and the lipids were exposed to a PhosphorImager screen for quantification (Molecular Dynamics, Sunnyvale, Calif.), as previously described (De Schrijver et al., 2003).

[3] = test system: LNCaP cells; test: Analysis of intact phospholipid species by ESI-MS/MS; details: soraphen 100 nM, 72 hr, versus vehicle
Description: To prepare lipid extracts for ESI-MS/MS analysis, the tissue or cells were homogenized in 1.6 ml of 0.1 N HCl:CH3OH 1:1 (v/v). CHCl3 (0.8 ml) and 200 μg/ml of the anti-oxidant 2,6-di-tert-butyl-4-methylphenol (Sigma) were added (Milne et al., 2006). After addition of the lipid standards, the organic fractions were collected by centrifugation at 200 g for 5 min. Samples were evaporated and reconstituted in CH3OH:CHCl3:NH4OH (90:10:1.25, v/v/v) and the lipids were analyzed by electrospray ionization tandem mass spectrometry (ESI-MS/MS) on a hybrid quadrupole linear ion trap mass spectrometer (4000 QTRAP system; Applied Biosystems, Foster City, Calif.) equipped with a robotic nanoflow/ion source (Advion Biosciences). The system was operated in the MRM mode for quantification of individual species. Data were expressed as fold change relative to the control samples (untreated cells or matched normal tissue) and were presented as heatmaps using the Heatmap Builder software (Clifton Watt, Stanford University, USA).

[4] = test system: LNCaP cells; test: Lipid peroxidation product assay
Description: Equal amounts of cells were scraped in ice-cold PBS, kept on ice for 15 min, and then sonicated (10 bursts). After centrifugation at 3,000 g for 10 min, the supernatants were analyzed using a lipid peroxidation assay kit (Oxford Biomedical Research, Oxford, Mich.) that quantifies the amount of malondialdehydes and 4-hydroxyalkenals, which are generated from fatty acid peroxide decomposition.

[5] = test system: CD36-positive cells (COS-7 transfected with pCD36); test: CD36-binding assay
Description: LNCaP cells were cultured in the presence or absence of soraphen and/or palmitic acid for 72 hr. The cells were exposed to H2O2 (300 μM) for 30 min. Cells were trypsinized and labeled with Cell Tracker Dye Orange CMRA (C34551). The labeled LNCaP cells (1.5×10^5) were subsequently layered over a monolayer of COS-7 cells, which were cultured on glass coverslips and transfected with a CD36-encoding construct (pCD36) or the corresponding empty vector (pEF-BOS) (both kindly provided by R. Thorne, University of Newcastle, Australia). Cells were co-cultured in 1 ml of RPMI medium for 1 hr at 37° C. After extensive washing, the cultures were fixed and imaged. The fluorescence signal of the CellTracker Dye was measured using Adobe Photoshop software (San Jose, Calif.).

[6] = test system: LNCaP cells; test: Doxorubicin flip-flop rate (NBD-PE quenching); details: soraphen 100 nM 72 hr, doxorubicin 10 μM, similar with verapamil 100 μM
Description: To measure the flip-flop rate of doxorubicin, cells were treated with soraphen or vehicle for 72 hr. During the last 24 hr of treatment, 10 μM of NBD-phosphatidylethanolamine (NBD-PE; Invitrogen) was added. Verapamil was added at a concentration of 100 μM 1 hr prior to harvesting the cells by trypsinization. The doxorubicin flip-flop rate across the plasma membrane was measured as the reduction in fluorescence of NBD due to quenching of NBD-PE by doxorubicin (Regev et al., 2005) (See Supplemental Methods for details).

[7] = test system: LNCaP cells; test: Doxorubicin accumulation (fluorescence microscopy and fluorimetry); details: soraphen 100 nM 72 hr, doxorubicin 10 μM 30 min
Description: To visualize the intracellular doxorubicin accumulation, doxorubicin was added at a final concentration of 10 μM. After 30 min, the cells were analyzed using a fluorescence microscope (515 nm longpass emission filter) and the LIDA software (Leica Microsystems GmbH).
To measure doxorubicin accumulation fluorimetrically, cells were exposed to 10 μM of doxorubicin for 30 min, washed in PBS, lysed in 0.3 M HCl in 50% ethanol (v:v), and centrifuged at 700 g for 5 min. The fluorescence of doxorubicin was measured at an excitation wavelength of 490 nm and an emission wavelength of 580 nm. Where indicated, media were supplemented with palmitic acid.

Work on `COc1cccc2c1C(=O)c1c(O)c3c(c(O)c1C2=O)C[C@@](O)(C(=O)CO)C[C@@H]3O[C@H]1C[C@H](N)[C@H](O)[C@H](C)O1` [doxorubicin] yielded a cell death ([1]; standard culture, doxorubicin 4 μM last 24 hr) of 8%.

In the case of `CO[C@H]1CCCC[C@@H](c2ccccc2)OC(=O)[C@@H](C)[C@@]2(O)O[C@H]([C@@H](C)[C@H](O)[C@H]2OC)[C@@H](C)/C=C/[C@H]1OC` [soraphen, Soraphen A], the “inhibition of fatty acid synthesis / de novo lipogenesis by 2-14C-acetate incorporation” value [2] is reported as “Inhibition of fatty acid synthesis, and as such de novo lipogenesis was confirmed”, the “decrease of PC species with one degree of unsaturation” value [3] is reported as “up to four-fold” and the “effect on PC species with two unsaturations” value [3] is reported as “ambiguous or minor net effect”. The “increase of PC species with more unsaturations (>three)” value [3] was “up to eight-fold”, the “levels of lipid peroxidation products” value ([4]; soraphen 100 nM, 72 hr) was “significantly increased” and the “number of CD36-bound LNCaP cells” value ([5]; soraphen 100 nM 72 hr followed by 300 μM H2O2 for 30 min) was “substantially increased”. The “increase in the flip-flop rate of doxorubicin” value [6] was “six-fold”, the “intracellular accumulation of doxorubicin” value [7] was “significant increase” and the “cell death in response to H2O2” value ([1]; soraphen 100 nM 72 hr, 300 μM H2O2 last 24 hr) was “markedly increased”. For the same compound, the cell death ([1]; soraphen alone 100 nM 72 hr) was “up to 20%”.

In the case of `CCCCCCCCCCCCCCCC(=O)O` [palmitic acid], the “effect on soraphen/H2O2-induced increase in lipid peroxidation products” value ([4]; soraphen 100 nM 72 hr, 200 μM H2O2 last 2 hr, exogenous palmitic acid 75 μM) is reported as “largely reversed these changes”, the “effect on soraphen-induced increase of CD36-bound LNCaP cells” value ([5]; soraphen 100 nM 72 hr, 300 μM H2O2 30 min, exogenous palmitic acid 75 μM) is reported as “counteracted these effects” and the “effect on soraphen-induced doxorubicin accumulation” value ([7]; palmitic acid 75 μM) is reported as “counteracted the effects of soraphen”. The “effect on soraphen-sensitized H2O2-induced cell death (rescue)” value ([1]; soraphen 100 nM 72 hr, 300 μM H2O2 last 24 hr, fatty acid supplement 75 μM) was “counteracted” and the “effect on soraphen/doxorubicin-induced cell death” value ([1]; soraphen 100 nM, doxorubicin 4 μM, palmitic acid 75 μM) was “largely rescued the cells from death”.
